One test has as its target T1, human A3AR (Homo sapiens, UniProt P0DMS8).
T1 construct: expressed in transfected cells; host or cells: CHO
T1 sequence (P0DMS8 1-318): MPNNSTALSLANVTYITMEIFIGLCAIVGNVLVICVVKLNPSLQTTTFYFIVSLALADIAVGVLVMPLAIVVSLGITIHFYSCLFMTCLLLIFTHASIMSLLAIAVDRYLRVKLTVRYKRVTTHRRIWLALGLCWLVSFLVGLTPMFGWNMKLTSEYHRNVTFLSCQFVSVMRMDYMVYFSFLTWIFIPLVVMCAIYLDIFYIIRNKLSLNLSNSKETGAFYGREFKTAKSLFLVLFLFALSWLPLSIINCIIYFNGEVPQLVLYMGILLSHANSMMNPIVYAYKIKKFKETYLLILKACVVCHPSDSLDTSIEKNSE
The experiment in a line: Inhibition of forskolin-stimulated cyclic AMP production in AR transfected CHO cells (Table 1). Format: cell-based. As to conditions: CHO; read-out: % Efficacy at the human A3 AR.

Test [1] has as its target human A2A adenosine receptor (Homo sapiens, UniProt P29274). The experiment in a line: Radioligand binding, human A2A AR (Table 1). As to conditions: for inhibition at 10 µM: read-out: A2A % inhib.
The target of test [2] is T2, human A3 adenosine receptor (Homo sapiens, UniProt P0DMS8).
T2 sequence (P0DMS8 1-318): T1 sequence (P0DMS8 1-318)
The experiment in a line: [125I]I-AB-MECA binding, human A3 AR, CHO membranes (Table 1). As to conditions: for Ki: A3 Ki, species H (human); for Selectivity A1/A3: human.

The target of test [3] is T3, human A1 adenosine receptor (Homo sapiens, UniProt P30542).
T3 sequence (P30542 1-326): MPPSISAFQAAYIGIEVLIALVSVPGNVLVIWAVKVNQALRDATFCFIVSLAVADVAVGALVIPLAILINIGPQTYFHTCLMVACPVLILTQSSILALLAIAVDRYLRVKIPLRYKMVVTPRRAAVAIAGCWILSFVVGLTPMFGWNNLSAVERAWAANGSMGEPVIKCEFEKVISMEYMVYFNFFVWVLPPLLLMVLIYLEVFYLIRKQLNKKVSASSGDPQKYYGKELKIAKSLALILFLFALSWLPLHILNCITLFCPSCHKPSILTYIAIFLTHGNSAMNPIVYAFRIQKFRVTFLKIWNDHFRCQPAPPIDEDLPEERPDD
The experiment in a line: Radioligand binding, human A1 AR, CHO membranes (Table 1). Particulars: for A1 % inhib.: species H (human), percent in parentheses, concentration not marked.

The target in another test is T4, hA3AR (Homo sapiens, UniProt P0DMS8).
T4 construct: expressed in transfected cells; host or cells: CHO
T4 sequence (P0DMS8 1-318): T1 sequence (P0DMS8 1-318)
The experiment in a line: Binding at hA3AR, CHO membranes (Example 7). Particulars: read-out: Affinity (Ki, nM) hA3.

The next test deals with T5, hA2AAR (Homo sapiens, UniProt P29274).
T5 construct: expressed in transfected cells
The experiment in a line: Binding at hA2AAR, HEK-293 membranes (Example 7). As to conditions: read-out: % inhibition hA2A. The method, then:
After harvesting, cells were homogenized and suspended in PBS.
Nonspecific binding was determined using a final concentration of 10 μM 51 diluted with the buffer.

For another test, the target named is T6, mA3AR (Mus musculus, UniProt Q61618).
T6 construct: expressed in transfected cells
T6 sequence (Q61618 1-319): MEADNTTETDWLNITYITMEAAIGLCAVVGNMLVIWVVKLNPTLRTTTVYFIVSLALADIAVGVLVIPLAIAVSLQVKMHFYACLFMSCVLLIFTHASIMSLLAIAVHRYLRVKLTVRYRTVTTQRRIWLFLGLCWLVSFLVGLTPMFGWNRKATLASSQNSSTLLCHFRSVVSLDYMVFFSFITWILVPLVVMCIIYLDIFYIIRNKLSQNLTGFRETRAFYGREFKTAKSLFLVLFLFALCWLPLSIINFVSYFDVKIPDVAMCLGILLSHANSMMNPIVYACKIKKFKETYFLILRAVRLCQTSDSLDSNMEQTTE
The experiment in a line: Competition binding at mA3AR, HEK293 membranes (Example 8). As to conditions: read-out: Affinity (Ki, nM) mA3.

For another test, the target named is T7, mA1AR (Mus musculus, UniProt Q60612).
T7 construct: expressed in transfected cells
T7 sequence (Q60612 1-326): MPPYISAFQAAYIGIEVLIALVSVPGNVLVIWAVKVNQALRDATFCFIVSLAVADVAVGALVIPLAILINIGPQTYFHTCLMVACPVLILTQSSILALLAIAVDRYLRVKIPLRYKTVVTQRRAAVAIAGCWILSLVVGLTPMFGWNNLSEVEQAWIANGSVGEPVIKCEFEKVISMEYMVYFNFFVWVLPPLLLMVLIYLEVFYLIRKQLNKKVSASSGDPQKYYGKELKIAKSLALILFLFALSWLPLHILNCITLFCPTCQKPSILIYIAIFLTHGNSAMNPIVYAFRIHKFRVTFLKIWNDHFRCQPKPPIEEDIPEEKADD
The experiment in a line: Competition binding at mA1AR, HEK293 membranes (Example 8). As to conditions: percent in parentheses, concentration not given.

The next test addresses T8, hA1AR (Homo sapiens, UniProt P30542).
T8 construct: expressed in transfected cells; host or cells: CHO
T8 sequence (P30542 1-326): T3 sequence (P30542 1-326)
The test is described as follows: Binding at hA1AR, CHO membranes (Example 7). Particulars: read-out: % inhibition hA1.

Test [4] deals with T9, mouse A3 adenosine receptor (Mus musculus, UniProt Q61618).
T9 sequence (Q61618 1-319): T6 sequence (Q61618 1-319)
The test is described as follows: Competition radioligand binding, mouse A3 AR, HEK293 membranes (Table 1). As to conditions: for Ki: A3 Ki, species M (mouse), [125I]I-AB-MECA; for Selectivity A1/A3: mouse.

In test [5] the target is T10, mouse A1 adenosine receptor (Mus musculus, UniProt Q60612).
T10 sequence (Q60612 1-326): T7 sequence (Q60612 1-326)
The test is described as follows: Competition radioligand binding, mouse A1 AR, HEK293 membranes (Table 1).

For test [6], the target named is mouse A2A adenosine receptor (Mus musculus, UniProt Q60613). The experiment in a line: Competition radioligand binding, mouse A2A AR, HEK293 membranes (Table 1). As to conditions: read-out: A2A % inhib.
Chain of mouse A2A adenosine receptor (Q60613 whole entry): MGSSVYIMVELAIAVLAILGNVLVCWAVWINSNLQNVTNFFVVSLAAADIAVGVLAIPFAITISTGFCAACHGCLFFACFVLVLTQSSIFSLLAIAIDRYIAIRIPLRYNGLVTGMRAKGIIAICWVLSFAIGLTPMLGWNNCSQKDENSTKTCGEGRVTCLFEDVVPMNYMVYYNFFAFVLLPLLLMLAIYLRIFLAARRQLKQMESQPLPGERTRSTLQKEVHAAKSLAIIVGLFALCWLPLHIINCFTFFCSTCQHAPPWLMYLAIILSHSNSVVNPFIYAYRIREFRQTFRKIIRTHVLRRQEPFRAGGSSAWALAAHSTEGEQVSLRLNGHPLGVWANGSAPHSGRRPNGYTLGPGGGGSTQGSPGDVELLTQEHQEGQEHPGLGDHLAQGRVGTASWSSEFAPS

T5 sequence (P29274 whole entry): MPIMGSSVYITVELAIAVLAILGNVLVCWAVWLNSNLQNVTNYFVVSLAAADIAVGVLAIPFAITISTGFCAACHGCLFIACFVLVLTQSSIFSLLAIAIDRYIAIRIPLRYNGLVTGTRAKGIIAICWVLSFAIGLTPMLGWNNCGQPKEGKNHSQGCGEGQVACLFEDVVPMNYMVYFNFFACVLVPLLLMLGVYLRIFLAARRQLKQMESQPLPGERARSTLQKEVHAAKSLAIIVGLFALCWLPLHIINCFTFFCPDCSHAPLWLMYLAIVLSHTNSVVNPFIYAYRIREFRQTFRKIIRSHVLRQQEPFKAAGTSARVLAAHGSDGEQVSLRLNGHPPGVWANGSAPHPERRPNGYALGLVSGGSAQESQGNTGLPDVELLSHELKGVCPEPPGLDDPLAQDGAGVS
Chain of human A2A adenosine receptor (P29274 whole entry): as above
Protocol for hA3AR: CHO cells stably expressing the recombinant hA1, hA3, and rA3Rs, and HEK-293 cells stably expressing the hA2AAR were cultured in Dulbecco's modified Eagle medium (DMEM) and F12 (1:1) supplemented with 10% fetal bovine serum, 100 units/mL penicillin, 100 μg/mL streptomycin, and 2 μmol/mL glutamine. In addition, 800 μg/mL geneticin was added to the A2A media, while 500 μg/mL hygromycin was added to the A1 and A3 media. After harvesting, cells were homogenized and suspended in PBS. Cells were then centrifuged at 240 g for 5 min, and the pellet was resuspended in 50 mM Tris-HCl buffer (pH 7.5) containing 10 mM MgCl2. The suspension was homogenized and was then ultra-centrifuged at 14,330 g for 30 min at 4° C. […] The protein concentration was measured using the BCA Protein Assay Kit from Pierce Biotechnology, Inc. (Rockford, Ill.).
Into each tube in the binding assay was added 50 μL of increasing concentrations of the test ligand in Tris-HCl buffer (50 mM, pH 7.5) containing 10 mM MgCl2, 50 μL of the appropriate agonist radioligand, and finally 100 μL of membrane suspension. […] For the A2AAR (20 μg/tube) the radioligand used was [^3H]53 (10 nM). […] Nonspecific binding was determined using a final concentration of 10 μM 51 diluted with the buffer. The mixtures were incubated at 25° C. for 60 min in a shaking water bath. Binding reactions were terminated by filtration through Brandel GF/B filters under a reduced pressure using a M-24 cell harvester (Brandel, Gaithersburg, Md.). Filters were washed three times with 3 mL of 50 mM ice-cold Tris-HCl buffer (pH 7.5). […] Filters for A3AR binding were counted using a Packard COBRA™ II γ-counter. The Ki values were determined using GraphPad Prism for all assays.

What is called Ki is the dissociation constant of the complex between target and ligand, obtained from inhibition or displacement. As for `CNC(=O)C12CC1C(n1cnc3c(NCc4cccc(Cl)c4)nc(C#CCCC(=O)NCCCCN)nc31)C(O)C2O` (stereo not drawn) [Compound 40, (1′S, 2′R, 3′S, 4′S, 5′S)-4′-[6-(3-Chlorobenzylamino)-2-(4-(β-aminobutylaminocarbonyl)-1-butynyl)-9-yl]-2′,3′-dihydroxybicyclo[3.1.0]hexane-1′-carboxylic acid N-methylamide], on human A3AR, the Emax at 10 µM worked out at 102 ± 13%. For the same compound, the inhibitory constant (Ki) in test [1] stood at 766 ± 109 nM. Further, in test [2], the Ki is 2.1 ± 0.4 nM and the “Selectivity A1/A3” value is on record as “up to 1900”.
Turning to `CNC(=O)C12CC1C(n1cnc3c(NCc4cccc(Cl)c4)nc(C#CCCC(=O)OC)nc31)C(O)C2O` (stereo not shown) [Compound 35], on human A3AR, the Emax at 10 µM is 74.4 ± 5.1%. In addition, the A1 % inhib. result in test [3] is “(19 ± 3%)”. This compound also yielded an inhibition constant (Ki) in [2] of 5.5 ± 0.3 nM.
Take `CNC(=O)[C@@]12C[C@@H]1[C@@H](n1cnc3c(NCc4cccc(Cl)c4)nc(C#Cc4ccc(-c5ccccc5)cc4)nc31)[C@H](O)[C@@H]2O` [Compound 335, (1S,2R,3S,4R,5S)-4-(2-(Biphenyl-4-ylethynyl)-6-(3-chlorobenzylamino)-9H-purin-9-yl)-2,3-dihydroxy-N-methylbicyclo[3.1.0]hexane-1-carboxamide]: the figures for the Ki on hA3AR and at mA3AR were 3.06 ± 1.35 nM and 22 nM, respectively. At hA2AAR, the inhibition at 10 µM came out at 0%. In addition, at mA1AR, the “% inhibition mA1” value was “(28%)”.
For the compound `CNC(=O)[C@@]12C[C@@H]1[C@@H](n1cnc3c(NC)nc(C#Cc4ccccc4Cl)nc31)[C@H](O)[C@@H]2O` [Compound 314, (1S,2R,3S,4R,5S)-4-(2-((2-Chlorophenyl)ethynyl)-6-(methylamino)-9H-purin-9-yl)-2,3-dihydroxy-N-methylbicyclo[3.1.0]hexane-1-carboxamide], the Ki on hA3AR is 0.58 ± 0.04 nM; at mA3AR, 55 nM. Also, the results for the inhibition at 10 µM at hA1AR and on hA2AAR were 22% and 30%, respectively. For the same compound, the “% inhibition mA1” value at mA1AR is listed as “(45%)”.
For `CNC(=O)C12CC1C(n1cnc3c(NOC)nc(Cl)nc31)C(O)C2O` (stereo not drawn) [Compound 21, (1′S,2′R,3′S,4′S,5′S)-4′-[6-Methoxyamino-2-chloropurin-9-yl]-2′,3′-dihydroxybicyclo[3.1.0]hexane-1′-carboxylic acid N-methylamide], the inhibitory constant (Ki) in [4] is 877 ± 149 nM; in test [5], 1160 ± 130 nM; in [3], 265 ± 45 nM; in test [2], 149 ± 15 nM. The figures for the “Selectivity A1/A3” value in [4] and in test [2] were 1.3 and 1.8, respectively. The inhibition at 10 µM in [1] was 2%. Further, the inhibition at 100 µM in test [6] worked out at 2%.
Take `CNC(=O)C12CC1C(n1cnc3c(NCc4cccc(Cl)c4)nc(C#CCCC(=O)NCCNC(=O)CCCCCNC(=O)CCCCC4SCC5NC(=O)NC54)nc31)C(O)C2O` (stereo not drawn) [Compound 43, (1′S,2′R,3′S,4′S,5′S)-4′-[6-(3-Chlorobenzylamino)-2-(N-biotinyl {5-aminopentanyl}(β-aminoethylaminocarbonyl)-1-butynyl)-9-yl]-2′,3′-dihydroxybicyclo[3.1.0]hexane-1′-carboxylic acid N-methylamide]: at human A3AR, the Emax at 10 µM turned out to be 106 ± 17.7%. Moreover, in test [3], the A1 % inhib. result was “(8 ± 4%)”. In test [2], the inhibitory constant (Ki) was found to be 57.7 ± 16.2 nM.
For the compound `CNC(=O)C12CC1C(n1cnc3c(NC4CCCC4)nc(Cl)nc31)C(O)C2O` (stereo not shown) [Compound 32], the Emax at 10 µM on human A3AR was determined as 101%. For the same compound, the Ki in test [1] came to 3250 ± 300 nM; in test [3] it was 18.3 ± 6.3 nM.
As to `CNC(=O)C12CC1C(n1cnc3c(NCc4cccc(Cl)c4)nc(C#CCCCC(=O)NCCN)nc31)C(O)C2O` (stereo not shown) [Compound 8], the inhibition constant Ki in test [4] was 8.6 ± 1.02 nM; in test [5], 546 ± 62 nM; in test [3], 454 ± 44 nM; in test [2], 2.17 ± 0.51 nM. In addition, the results for the “Selectivity A1/A3” value in [4] and in test [2] were 64 and 209, respectively. In test [1], the inhibition at 10 µM was determined as 81%. The inhibition at 100 µM in [6] was found to be 31%.
Regarding `CNC(=O)C12CC1C(n1cnc3c(NCc4cccc(Cl)c4)nc(C#CCCCCC(=O)OC)nc31)C(O)C2O` (stereo not shown) [Compound 36], on human A3AR, the Emax at 10 µM amounted to 90 ± 6.2%. Besides, the Ki in test [1] stood at 3540 ± 1370 nM; in test [2] it was 11.1 ± 2.3 nM. Moreover, the A1 % inhib. result in test [3] was “(21 ± 8%)”.
In the case of `CNC(=O)C12CC1C(n1cnc3c(NCc4cccc(Cl)c4)nc(C#CCCC(=O)O)nc31)C(O)C2O` (stereo not shown) [Compound 33], the Emax at 10 µM at human A3AR worked out at 106 ± 17.7%. Moreover, the affinity in test [2] corresponds to a Ki of 61.1 ± 35.8 nM.
As to `CNC(=O)C12CC1C(n1cnc3c(NCc4cccc(Cl)c4)nc(SC)nc31)C(O)C2O` (stereo not shown) [Compound 20], the inhibition constant Ki in test [4] was 1.19 ± 0.09 nM; in test [5], 98.9 ± 18.8 nM; in [1], 10000 nM; in test [3], 610 nM; in [2] it was 1.5 nM. Also, in test [4], the “Selectivity A1/A3” value is 83. Further, in [6], the inhibition at 100 µM was determined as 32%.
In the case of `CNC(=O)[C@@]12C[C@@H]1[C@@H](n1cnc3c(NCc4cccc(Cl)c4)nc(C#Cc4ccccc4)nc31)[C@H](O)[C@@H]2O` [Compound 327, (1S,2R,3S,4R,5S)-4-(6-(3-Chlorobenzylamino)-2-(phenylethynyl)-9H-purin-9-yl)-2,3-dihydroxy-N-methylbicyclo[3.1.0]hexane-1-carboxamide], the inhibition at 10 µM at hA1AR was 18%; on hA2AAR, 27%. At mA3AR, the Ki was determined as 16 nM. Moreover, at mA1AR, the “% inhibition mA1” value is recorded as “(41%)”.
`CNC(=O)C12CC1C(n1cnc3c(NCc4cccc(Cl)c4)nc(C#C[Si](C)(C)C)nc31)C(O)C2O` (stereo not drawn) [Compound 4, (1′S,2′R,3′S,4′S,5′S)-4′-[6-(3-Chlorobenzylamino)-2-trimethylsilylethynyl-9-yl]-2′,3′-dihydroxybicyclo[3.1.0]hexane-1′-carboxylic acid N-methylamide]: the Ki in [4] amounted to 4.46 ± 0.57 nM; in test [5], 159 ± 22 nM; in test [3], 160 ± 40 nM; in [2], 0.98 ± 0.14 nM. Also, the “Selectivity A1/A3” value worked out at 35.6 in test [4] and 160 in test [2]. Further, the inhibition at 10 µM in test [1] is 52%. Also, the inhibition at 100 µM in test [6] stood at 20%.
In the case of `CNC(=O)[C@@]12C[C@@H]1[C@@H](n1cnc3c(NCc4cccc(Cl)c4)nc(C#Cc4ccc(F)cc4)nc31)[C@H](O)[C@@H]2O` [Compound 328, (1S,2R,3S,4R,5S)-4-(6-(3-Chlorobenzylamino)-2-((4-fluorophenyl)ethynyl)-9H-purin-9-yl)-2,3-dihydroxy-N-methylbicyclo[3.1.0]hexane-1-carboxamide], the inhibition at 10 µM on hA1AR was 19%; at hA2AAR, 42%. For the same compound, at mA3AR, the Ki was 7.5 nM. Also, the “% inhibition mA1” value on mA1AR is on record as “(39%)”.

For the origin of these results see patent publication US8916570B2 (The United States of America, as represented by the …, priority 2008, dated 2014).
